Source: US7732401B2, “Inhibitor of TGF-β activation reaction” (Riken, priority 2007, dated 2010)
“Also recorded” adds a separate entry of the source. Where no end group is shown, it is not given here.

Experiments:
[1] = test system: active TGF-β1; test: Amount of active TGF-β1 in conditioned medium of hepatic stellate cells (ELISA); type: cell-based, rat; details: for amount of active TGF-β generated into the conditioned medium, of the control / TGF-β (active TGF-β generated into the conditioned medium): Example 1, peptide 1 mM; for TGF-β (active TGF-β generated into the conditioned medium): Table 1; for inhibition of generation of the active TGF-β in the conditioned medium observed in control cells: Example 4, peptide 0.5 mM
Protocol: (§1) According to the method previously reported (Okuno M. et al., Gastroenterology 2001; 120: 1784-1800), hepatic stellate cells were isolated from the liver of male Wistar rats (body weight: 350 to 400 g; Japan Clea), and the isolated cells were then seeded in a concentration of 1×10^6 cells/dish on a 3.5-cm culture plastic dish. Thereafter, the cells were cultured in 1 ml of Dulbecco's modified Eagle medium (DMEM; manufactured by SIGMA) containing 10% fetal calf serum (FCS; manufactured by GIBCO).
(§2) A 60 mM aqueous stock solution of each peptide was prepared, and the peptide was then dissolved in a medium to make a final concentration of 1 mM. Until the 3rd day of isolation, the aforementioned cells were treated in a DMEM medium containing 10% FCS. On the 4th day, the medium was exchanged with serum free DMEM containing 0.1% bovine serum albumin (BSA) and each peptide with a final concentration of 1 mM, and the culture was further continued for 2 to 4 days. Thereafter, the culture medium was collected as a conditioned medium, and the amount of active TGF-β1 present in the conditioned medium was measured using an ELISA kit manufactured by PROMEGA. At the same time, the state of the cells was observed under a microscope (DMIRB; manufactured by Leica) and was then photographed.
(§3) Each peptide was dissolved in a medium to a final concentration of 0.5 mM (approximately 500 μg/ml). At the 1st day of isolation, the aforementioned cells were treated in a DMEM medium containing 10% FCS. On the 2nd day, the medium was changed with serum free DMEM containing 0.1% BSA and each peptide at a final concentration of 0.5 mM, and the culture was further continued for 2 to 7 days. Thereafter, the culture medium was collected as a conditioned medium, and the amount of active TGF-β1 present in the conditioned medium was then quantitated using an ELISA kit manufactured by PROMEGA. At the same time, the state of the cells was observed under a microscope (DMIRB; manufactured by Leica) and photographed.

[2] = test system: hepatic stellate cells; test: Transformation (activation) of cultured hepatic stellate cells on a plastic dish, observed under a microscope; type: cell-based, rat; details: for suppression of activation of hepatic stellate cells (morphological change with disappearance of vitamin A-containing oil droplets): Example 1, peptide 1 mM, FIG. 2; for suppression of activation of hepatic stellate cells (morphological change with disappearance of oil droplets containing vitamin A): Example 4, peptide 0.5 mM, FIG. 7
Protocol: as §1
From day one of isolation of hepatic stellate cells, they were cultured for 7 days with the following peptides added in the medium; QP peptide (Gln-Ile-Leu-Ser-Lys-Leu-Arg-Leu-Ala-Ser-Pro) (SEQ ID NO: 9); QPA peptide (Gln-Ile-Leu-Ser-Ala-Ala-Ala-Leu-Ala-Ser-Pro) (SEQ ID NO: 10); and a control synthetic peptide consisting of 11 amino acids that is derived from a latent TGF-β1 LAP sequence (Thr-Gly-Val-Val-Arg-Gln-Trp-Leu-Ser-Arg-Gly; this is referred to as T200 peptide) (SEQ ID NO: 11) (please refer to FIG. 1), however anticipated not to influence TGF-β activation reaction because of the sequence being apart from the TGF-β activation control region (Gly51 to Arg110) discovered by the present inventors (International Publication WO2005/023870). […] Influence of each peptide on transformation of hepatic stellate cells (which is also referred to as activation of hepatic stellate cells) induced by culturing them on the plastic dish was observed under a microscope.
as §2
In accordance with the method described in Example 1, the influence of each of the QP peptide, QPA peptide, QPQ peptide and T200 peptide on transformation of the cultured hepatic stellate cells, which occurs by culturing cells on a plastic dish, was observed.
as §3

Substance | amount of active TGF-β generated into the conditioned medium, of the control [1] [%] | TGF-β (active TGF-β generated into the conditioned medium) [1] [pg/mL] | suppression of activation of hepatic stellate cells (morphological change with disappearance of vitamin A-containing oil droplets) [2] | suppression of activation of hepatic stellate cells (morphological change with disappearance of oil droplets containing vitamin A) [2] | inhibition of generation of the active TGF-β in the conditioned medium observed in control cells [1] [%]
TGVVRQWLSRG [T200 peptide, reference compound] | 74 | 160 ± 19 | did not exhibit such a suppressing effect | did not exhibit such a suppressing effect | –
N-52QILSAAAAASP62-C (QILSAAALASP) [QPA peptide, mutant of QP peptide with Lys56, Leu57, Arg58 and Leu59 substituted with Ala] | 2 | 4 ± 1 | significantly suppressed | significantly suppressed | 25
N-52QILSQQQQASP62-C [QPQ peptide, mutant of QP peptide with Lys56, Leu57, Arg58 and Leu59 substituted with Gln] | – | – | – | significantly suppressed; also recorded: strongest suppressing effect | 90
QILSKLRLASP [QP peptide] | – | – | weakly suppressing effect | significantly suppressed | 55
